What all share (assay type): in vitro ADME
Data set [1] addresses T1, CYP2D6 (Homo sapiens, UniProt P10635).
T1 construct: a human liver microsome solution containing three CYP-specific substrates; from tissue; host or cells: human liver microsomes
In words: CYP inhibition test (2): 50% inhibitory concentration from 3 concentrations, CYP2D6. The note with it: human liver microsome, bufuralol substrate, 0.01, 0.03 and 0.1 mmol/L; read-out: 50% inhibitory concentration, 2D6. As for the experimental part: (§1) A metabolic reaction was initiated by adding and mixing a test compound solution (final concentration 0.01, 0.03 and 0.1 mmol/L) and a NADH/NADPH solution (final concentration 1 mmol/L) to a human liver microsome solution containing three CYP-specific substrates (final concentration 100 mmol/L potassium phosphate buffer solution (pH 7.4), 5 mmol/L magnesium chloride, 0.1 mg/mL human liver microsome, 0.005 mmol/L diclofenac (for CYP2C9), 0.01 mmol/L bufuralol (for CYP2D6), 0.005 mmol/L midazolam (for CYP3A4)). As an internal standard solution, a solution of each of stable isotopes of the metabolites (50 ng/mL [13C6] hydroxy diclofenac, 5 ng/mL [2H9] hydroxy bufuralol, and 5 ng/mL [13C6] hydroxy midazolam (all stable isotopes)) in methanol was prepared and used as a quenching solution. Specifically, a metabolic reaction was initiated by adding and mixing 2 μL of a solution of a test compound in acetonitrile (or acetonitrile as a control) to 178 μL of a human liver microsome solution in ice water, followed by preincubation at 37° C. for 1 minute, and then adding 20 μL of a NADH/NADPH solution thereto. After incubation at 37° C. for 10 minutes, 50 μL of the reaction mixture was taken, and then it was added and mixed to 500 μL of a quenching solution to quech the reaction. The mixture was centrifuged (6130 g, 4° C., 10 minutes) and the supernatant was used as a sample for LC-MS/MS. Peak area ratio ([peak area of metabolite]/[peak area of corresponding stable isotope]) was calculated for a metabolite and a stable isotope of the metabolite as measurement object. By comparing the peak area ratio of each test compound solution with that of the control, the inhibition rate (%) of each CYP species for each test compound was calculated from (1−[peak area ratio of each test compound solution]/[peak area ratio of control])×100.

The target in data set [2] is T2, CYP3A4 (Homo sapiens, UniProt P08684).
T2 construct: a human liver microsome solution containing three CYP-specific substrates; from tissue; host or cells: human liver microsomes
The data set is described as follows: CYP inhibition test (2): 50% inhibitory concentration from 3 concentrations, CYP3A4. The conditions noted are these: human liver microsome, midazolam substrate, 0.01, 0.03 and 0.1 mmol/L; read-out: 50% inhibitory concentration, 3A4. The procedure: as §1
In general terms: Liver microsomes are vesicles of endoplasmic reticulum, rich in cytochrome P450 enzymes.

Data set [3] has as its target T3, CYP2C9 (Homo sapiens, UniProt P11712).
T3 construct: a human liver microsome solution containing three CYP-specific substrates; from tissue; host or cells: human liver microsomes
The data set is described as follows: CYP inhibition test (2): 50% inhibitory concentration from 3 concentrations, CYP2C9. The note with it: human liver microsome, diclofenac substrate, 0.01, 0.03 and 0.1 mmol/L, read-out: 50% inhibitory concentration, 2C9. The procedure:
as §1

T3 sequence (P11712 whole entry): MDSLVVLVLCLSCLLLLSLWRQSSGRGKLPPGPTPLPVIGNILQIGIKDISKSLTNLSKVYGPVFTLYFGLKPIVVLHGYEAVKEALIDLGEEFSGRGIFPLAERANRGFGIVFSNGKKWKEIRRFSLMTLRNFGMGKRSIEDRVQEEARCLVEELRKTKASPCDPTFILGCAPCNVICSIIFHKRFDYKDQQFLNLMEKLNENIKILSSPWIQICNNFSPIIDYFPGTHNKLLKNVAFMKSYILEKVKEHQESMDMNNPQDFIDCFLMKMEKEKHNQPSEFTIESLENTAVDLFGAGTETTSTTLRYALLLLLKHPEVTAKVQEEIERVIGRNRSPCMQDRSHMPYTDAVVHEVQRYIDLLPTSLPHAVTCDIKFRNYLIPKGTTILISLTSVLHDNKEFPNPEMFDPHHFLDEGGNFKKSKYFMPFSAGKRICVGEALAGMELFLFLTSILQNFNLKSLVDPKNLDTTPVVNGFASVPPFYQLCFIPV
T2 sequence (P08684 whole entry): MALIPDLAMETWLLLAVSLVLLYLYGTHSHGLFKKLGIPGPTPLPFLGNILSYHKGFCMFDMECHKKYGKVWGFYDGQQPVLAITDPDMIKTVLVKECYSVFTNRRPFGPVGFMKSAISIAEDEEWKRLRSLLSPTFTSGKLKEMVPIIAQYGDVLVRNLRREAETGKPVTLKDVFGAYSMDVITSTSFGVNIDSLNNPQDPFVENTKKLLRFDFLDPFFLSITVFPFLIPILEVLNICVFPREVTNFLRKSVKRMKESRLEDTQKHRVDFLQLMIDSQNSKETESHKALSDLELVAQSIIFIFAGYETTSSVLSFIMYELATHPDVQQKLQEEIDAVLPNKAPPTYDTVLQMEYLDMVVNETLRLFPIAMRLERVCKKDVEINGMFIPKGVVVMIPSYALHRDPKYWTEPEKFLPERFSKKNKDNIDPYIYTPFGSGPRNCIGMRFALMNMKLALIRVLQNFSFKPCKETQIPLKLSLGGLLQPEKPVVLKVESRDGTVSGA
T1 sequence (P10635 whole entry): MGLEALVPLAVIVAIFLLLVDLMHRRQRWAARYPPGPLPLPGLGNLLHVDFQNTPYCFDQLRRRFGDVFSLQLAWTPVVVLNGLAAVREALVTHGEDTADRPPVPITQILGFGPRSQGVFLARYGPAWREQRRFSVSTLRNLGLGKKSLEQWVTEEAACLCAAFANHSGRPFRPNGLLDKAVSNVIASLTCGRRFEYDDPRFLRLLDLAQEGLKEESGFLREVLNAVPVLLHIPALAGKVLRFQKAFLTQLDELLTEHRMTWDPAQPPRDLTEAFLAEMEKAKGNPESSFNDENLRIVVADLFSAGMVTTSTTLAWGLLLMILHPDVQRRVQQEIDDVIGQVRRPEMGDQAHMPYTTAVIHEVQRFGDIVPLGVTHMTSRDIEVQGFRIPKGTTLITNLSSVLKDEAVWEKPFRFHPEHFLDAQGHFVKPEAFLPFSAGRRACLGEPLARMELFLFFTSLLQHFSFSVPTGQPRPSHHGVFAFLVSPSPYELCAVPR

With `C[C@@H]1CN(c2cc(F)c(OCCO)c(Cl)c2)[C@H]2CCCC[C@@H]2N1` [Example 17, 2-(2-chloro-6-fluoro-4-((3R,4aS,8aS)-3-methyloctahydroquinoxalin-1(2H)-yl)phenoxy)ethan-1-ol 1/2fumarate], the IC50 in data set [1], in data set [2] and in data set [3] was above 100 µM in each case.
For the compound `C[C@H]1CN(c2cc(F)c(OCCO)c(Cl)c2)[C@H]2CCCC[C@H]2N1` [Example 18], the IC50 in data set [1] was 59.1 µM; in data set [2] it was above 100 µM; in data set [3], above 100 µM.
For `CC1(C)CN(c2ccc(OC(F)(F)CO)cc2)[C@H]2CCCC[C@@H]2N1` [Example 20, 2-(4-((4aS,8aS)-3,3-dimethyloctahydroquinoxalin-1(2H)-yl)phenoxy)-2,2-difluoroethan-1-ol], the IC50 is above 100 µM in data set [1], 94.9 µM in data set [2] and above 100 µM in data set [3].
As to `CC1(C)CN(c2ccc(OC(F)(F)CO)cc2)[C@@H]2CCCC[C@H]2N1` [Example 21], the IC50 in data set [1], in data set [2] and in data set [3] was above 100 µM each time.
As to `COc1cc(N2CC(C)(C)N[C@H]3CCCC[C@@H]32)ccc1OC(F)(F)CO` [Example 26], the IC50 in data set [1], in data set [2] and in data set [3] was above 100 µM throughout.
For the compound `CC1(C)CN(c2ccc(OCCO)c(Cl)c2)[C@H]2CCCC[C@@H]2N1` [Example 27, 2-(2-chloro-4-((4aS,8aS)-3,3-dimethyloctahydroquinoxalin-1(2H)-yl)phenoxy)ethan-1-ol], the IC50 in data set [1], in data set [2] and in data set [3] was above 100 µM in each case.
Regarding `CC1(C)CN(c2ccc(OCCO)c(Cl)c2)[C@@H]2CCCC[C@H]2N1` [Example 28], the IC50 in data set [1], in data set [2] and in data set [3] was above 100 µM throughout.
Take `Cc1cc(N2CC(C)(C)N[C@H]3CCCC[C@@H]32)ccc1OC(F)(F)CO` [Example 31]: the IC50 was above 100 µM in data set [1], 62.5 µM in data set [2] and above 100 µM in data set [3].
Consider `Cc1cc(N2CC(C)(C)N[C@@H]3CCCC[C@H]32)ccc1OC(F)(F)CO` [Example 32], for which the values for the IC50 in data set [1], in data set [2] and in data set [3] were above 100 µM, 62.8 µM and above 100 µM, respectively.
Consider `CC1(C)CN(c2cc(F)c(OCCO)c(F)c2)[C@H]2CCCC[C@@H]2N1` [Example 34, 2-(4-((4aS,8aS)-3,3-dimethyloctahydroquinoxalin-1(2H)-yl)-2,6-difluorophenoxy)ethan-1-ol], for which the IC50 in data set [1], in data set [2] and in data set [3] was above 100 µM each time.
As for `CC1(C)CN(c2cc(F)c(OCCO)c(F)c2)[C@@H]2CCCC[C@H]2N1` [Example 35], the IC50 is 55.5 µM in data set [1], above 100 µM in data set [2] and above 100 µM in data set [3].
Turning to `CC1(C)CN(c2cc(F)c(OCCO)c(F)c2)[C@H]2CCCC[C@H]2N1` [Example 36], the IC50 in data set [1] is 87.6 µM; in data set [2] it was above 100 µM. Besides, in data set [3] (human liver microsomes, pH 7.4, probe diclofenac (0.005 mmol/L)), the IC50 at 10 min amounted to 100 µM.
`CN1[C@H]2CCCC[C@@H]2N(c2ccc(OC(F)(F)CO)cc2)CC1(C)C` [Example 37, 2,2-difluoro-2-(4-((4aS,8aS)-3,3,4-trimethyloctahydroquinoxalin-1(2H)-yl)phenoxy)ethan-1-ol]: the IC50 was above 100 µM in data set [1], 86.7 µM in data set [2] and above 100 µM in data set [3].

(Values after patent US20240409519A1, “HYDROGENATED QUINOXALINES” (OTSUKA PHARMACEUTICAL CO., LTD., priority 2021, published 2024).)
